# Test: Solubility in water of the rebaudioside A polymorph
# Type: physicochemical
# Conditions: 25° C.
structure (smiles),measurement,value
"C=C1C[C@@]23CC[C@H]4[C@@](C)(CCC[C@@]4(C)C(=O)O[C@@H]4O[C@H](CO)[C@@H](O)[C@H](O)[C@H]4O)[C@@H]2CC[C@]1(O[C@@H]1O[C@H](CO)[C@@H](O)[C@H](O[C@@H]2O[C@H](CO)[C@@H](O)[C@H](O)[C@H]2O)[C@H]1O[C@@H]1O[C@H](CO)[C@@H](O)[C@H](O)[C@H]1O)C3 [rebaudioside A polymorph, rebaudioside A]",solubility in water,about 1.5 mg/ml

# From patent US20110111115A1, “REBAUDIOSIDE A POLYMORPHS AND METHODS TO PREPARE THEM” (priority 2009, published 2011)
